Reference: patent publication EP0925782A2, “Cosmetics” (SOGO PHARMACEUTICAL COMPANY LIMITED, priority 1997, dated 1999)
Where a name gives a salt, the structure may show the parent alone.

Key:
[1] = Test for a moisturizability (weight change after standing at constant temperature and humidity); assay type: physicochemical; conditions: dried sample, 20°C, humidity 75% for 7 days, then 20°C, humidity 45% for 7 days, evaluated from change in weight
Method: Approximately one gram of a sample was taken in a weighing bottle, and dried with diphosphorus pentoxide under reduced pressure for 4 hours. The resulting sample was used in the following test. The weight was accurately measured, and the sample was allowed to stand in a constant temperature and constant humidity box having a temperature of 20°C and a humidity of 75% for 7 days. Subsequently, the sample was moved in a constant temperature and constant humidity box having a temperature of 20°C and a humidity of 45%, and allowed to stand for 7 days. The moisturizability was evaluated from the change in weight. As a control sample, glycerin was used. […]

rat = conditions: p. o.; cited from earlier work

## N[C@@H](CCC(=O)NCCS(=O)(=O)O)C(=O)O [Glutaurine sodium salt, glutaurine sodium salt]
[1]; sodium salt
  Water holding capacity (%): 19.45%

## N[C@@H](CCC(=O)NCCS(=O)(=O)O)C(=O)O [Glutaurine, glutaurine]
rat
  LD50: > 1000 mg/kg
[1]
  Water holding capacity (%): 17.12%

## OCC(O)CO [Glycerin, glycerin, reference compound]
[1]
  Water holding capacity (%): 19.88%
